Experiments:
T47D cells = assay: Cellular growth inhibition assay for T47D cells, CellTiter-Glo; format: cell-based, human; details: 72 hours treatment, CellTiter-Glo 2.0 cell viability
Summary of the method: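 Growth inhibition as GI50, fitted with four parameters to CellTiter-Glo luminescence after 72 h of compound exposure (0.5% DMSO). Cells were T47D, grown in insulin-supplemented (0.2 units/mL) DMEM with 10% FBS and treated one day post-seeding.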

[1] = system: T-Rex 293 cell line SC3 cells lacking increased expression of androgen receptor protein; assay: Cellular growth inhibition, T-Rex 293 SC3 cells without doxycycline, CellTiter-Glo; format: cell-based; details: T-Rex 293 SC3 cells not exposed to doxycycline, CellTiter-Glo 2.0
Summary of the method: (§1)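 Luminescence read-out (CellTiter-Glo 2.0) after 72 h compound exposure; GI50 by four-parameter nonlinear regression, baseline set at zero luminescence. SC3 cells, a doxycycline-inducible wild-type AR clone of T-Rex 293, were cultured ±10 ng/mL doxycycline in charcoal-dextran FBS medium.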

VCaP cells = assay: Cellular growth inhibition assay for VCaP cells, CellTiter-Glo; format: cell-based, human; details: 72 hours treatment, CellTiter-Glo 2.0
Summary of the method: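 GI50 values come from four-parameter curve fits of luminescence data normalized to a zero baseline. Compound, in medium with 0.5% DMSO, was added one day after plating and left for 72 h before CellTiter-Glo 2.0 addition.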

[2] = system: T-Rex 293 cell line SC3 cells having increased expression of androgen receptor protein due to exposure to doxycycline; assay: Cellular growth inhibition, T-Rex 293 SC3 cells with doxycycline (androgen receptor induced), CellTiter-Glo; format: cell-based; details: T-Rex 293 SC3 cells with 10 ng/mL doxycycline (increased androgen receptor expression)
Summary of the method: as §1

SMILES	GI50 (T47D cells; Homo sapiens, T47D, 72 h)	GI50 ([1]; 72 h)	GI50 (VCaP cells; Homo sapiens, VCaP, 72 h)	GI50 ([2]; 72 h)	GI50 (VCaP cells)	GI50 (T47D cells)	GI50 ([1]; 72 hours)	GI50 ([2]; 72 hours)
Cc1sc2c(c1C)C(c1ccc(C#C[C@H]3C[C@@]4(CCCN(c5ncc(C(=O)N[C@H]6C(C)(C)[C@H](Oc7ccc(C#N)c(Cl)c7)C6(C)C)cn5)C4)C3)cc1)=N[C@@H](Cc1ncco1)c1nnc(C)n1-2 [Compound I-268]	500 to 1500 nM	> 3000 nM	1500 to 3000 nM	< 500 nM				
Cc1sc2c(c1C)C(c1ccc(C(=O)N3CCC[C@@H](C(=O)c4ncc(C(=O)N[C@H]5C(C)(C)[C@H](Oc6ccc(C#N)c(Cl)c6)C5(C)C)cn4)C3)cc1)=N[C@@H](Cc1ncco1)c1nnc(C)n1-2 [Compound I-344]	500 to 1500 nM	> 3000 nM	500 to 1500 nM	> 3000 nM				
Cc1sc2c(c1C)C(c1ccc(N3CCN(C4CCN(c5ncc(C(=O)N[C@H]6C(C)(C)[C@H](Oc7ccc(C#N)c(Cl)c7)C6(C)C)cn5)CC4)CC3)cc1)=NC(Cc1ncco1)c1nnc(C)n1-2 (some centres unmarked) [Compound I-651]	< 500 nM	< 500 nM	< 500 nM	< 500 nM				
Cc1sc2c(c1C)C(c1ccc(O[C@H]3CCC4(CCN(c5ncc(C(=O)N[C@H]6C(C)(C)[C@H](Oc7ccc(C#N)c(Cl)c7)C6(C)C)cn5)CC4)C3)cc1)=N[C@@H](Cc1ncco1)c1nnc(C)n1-2 [Compound I-173]	< 500 nM	> 3000 nM	< 500 nM	< 500 nM				
Cc1sc2c(c1C)C(c1ccc(CC3CCC4(C3)CN(c3ncc(C(=O)N[C@H]5C(C)(C)[C@H](Oc6ccc(C#N)c(Cl)c6)C5(C)C)cn3)CCO4)cc1)=N[C@@H](C)c1nnc(C)n1-2 (some centres unmarked) [Compound I-619]	< 500 nM	500 to 1500 nM	< 500 nM	< 500 nM				
Cc1sc2c(c1C)C(c1ccc(C3CC(CC4CN(c5ncc(C(=O)N[C@H]6C(C)(C)[C@H](Oc7ccc(C#N)c(Cl)c7)C6(C)C)cn5)C4)C3)cc1)=NC(Cc1ncco1)c1nnc(C)n1-2 (some centres unmarked) [Compound I-476]	< 500 nM	< 500 nM	< 500 nM	< 500 nM				
Cc1sc2c(c1C)C(c1ccc(O[C@H]3CO[C@@]4(CCCN(c5ncc(C(=O)N[C@H]6C(C)(C)[C@H](Oc7ccc(C#N)c(Cl)c7)C6(C)C)cn5)C4)C3)cc1)=N[C@@H](Cc1ncco1)c1nnc(C)n1-2 [Compound I-186]	500 to 1500 nM	< 500 nM	< 500 nM	< 500 nM				
Cc1sc2c(c1C)C(c1ccc(CCN3CC[C@]4(C3)CN(c3ncc(C(=O)N[C@H]5C(C)(C)[C@H](Oc6ccc(C#N)c(Cl)c6)C5(C)C)cn3)CC(F)(F)C4)cc1)=N[C@@H](Cc1ncco1)c1nnc(C)n1-2 [Compound I-424]	< 500 nM	> 3000 nM	< 500 nM	< 500 nM				
Cc1sc2c(c1C)C(c1ccc(CCCOC3CCN(c4ncc(C(=O)N[C@H]5C(C)(C)[C@H](Oc6ccc(C#N)c(Cl)c6)C5(C)C)cn4)CC3)cc1)=N[C@H](Cc1ccncc1)c1nnc(C)n1-2 [Compound I-216]	> 3000 nM	> 3000 nM	< 500 nM	< 500 nM				
Cc1sc2c(c1C)C(c1ccc(CCN3CC[C@@]4(C3)CN(c3ncc(C(=O)N[C@H]5C(C)(C)[C@H](Oc6ccc(C#N)c(Cl)c6)C5(C)C)cn3)CC(F)(F)C4)cc1)=N[C@@H](Cc1ncco1)c1nnc(C)n1-2 [Compound I-425]	< 500 nM	> 3000 nM	< 500 nM	< 500 nM				
COCC[C@@H]1N=C(c2ccc(N3CC(CC4CCN(c5ncc(C(=O)N[C@H]6C(C)(C)[C@H](Oc7ccc(C#N)c(Cl)c7)C6(C)C)cn5)CC4)C3)cc2)c2c(sc(C)c2C)-n2c(C)nnc21 [Compound I-608]	500 to 1500 nM	> 3000 nM	< 500 nM	< 500 nM				
Cc1sc2c(c1C)C(c1ccc(N3CCN(C4CN(c5ncc(C(=O)NC6C(C)(C)C(Oc7ccc(C#N)c(Cl)c7)C6(C)C)cn5)C4)CC3)cc1)=N[C@@H](CC(=O)OC(C)(C)C)c1nnc(C)n1-2 (stereo partly drawn) [Compound I-236, tert-butyl 2-[(9S)-7-[4-[4-[1-[5-[[3-(3-chloro-4-cyano-phenoxy)-2,2,4,4-tetramethyl-cyclobutyl]carbamoyl]pyrimidin-2-yl]azetidin-3-yl]piperazin-1-yl]phenyl]-4,5,13-trimethyl-3-thia-1,8,11,12-tetrazatricyclo[8.3.0.02,6]trideca-2(6),4,7,10,12-pentaen-9-yl]acetate]	< 500 nM	500 to 1500 nM	< 500 nM	< 500 nM				
Cc1sc2c(c1C)C(c1ccc(CC[C@H]3C[C@@]4(CCCN(c5ncc(C(=O)N[C@H]6C(C)(C)[C@H](Oc7ccc(C#N)c(Cl)c7)C6(C)C)cn5)C4)C3)cc1)=N[C@@H](C)c1nnc(C)n1-2 [Compound I-368]	< 500 nM	> 3000 nM	< 500 nM	< 500 nM				
Cc1sc2c(c1C)C(c1ccc(CC(=O)N3CCN(c4ncc(C(=O)N[C@H]5C(C)(C)[C@H](Oc6ccc(C#N)c(Cl)c6)C5(C)C)cn4)CC3)cc1)=N[C@@H](Cc1ncco1)c1nnc(C)n1-2 [Compound I-363]	500 to 1500 nM	500 to 1500 nM	< 500 nM	< 500 nM				
Cc1sc2c(c1C)C(c1ccc(C3CN(C(=O)C4CCN(c5ncc(C(=O)N[C@H]6C(C)(C)[C@H](Oc7ccc(C#N)c(Cl)c7)C6(C)C)cn5)CC4)C3)cc1)=N[C@@H](C)c1nnc(C)n1-2 [Compound I-590]	< 500 nM	< 500 nM	< 500 nM	< 500 nM				
CC[C@@H]1N=C(c2ccc(CC3CC4(CCN(c5ncc(C(=O)N[C@H]6C(C)(C)[C@H](Oc7ccc(C#N)c(Cl)c7)C6(C)C)cn5)CC4)C3)cc2)c2c(sc(C)c2C)-n2c(C)nnc21 [Compound I-596]	> 3000 nM	> 3000 nM	< 500 nM	< 500 nM				
Cc1noc2c1-c1ccccc1C(c1ccc(O[C@H]3C[C@]4(CN(c5ncc(C(=O)N[C@H]6C(C)(C)[C@H](Oc7ccc(C#N)c(Cl)c7)C6(C)C)cn5)CCO4)C3)cc1)=N[C@H]2Cc1ncco1 [Compound I-223]	> 3000 nM	> 3000 nM	> 3000 nM	< 500 nM				
Cc1sc2c(c1C)C(c1ccc(C3CC(N4CCN(c5ncc(C(=O)N[C@H]6C(C)(C)[C@H](Oc7ccc(C#N)c(Cl)c7)C6(C)C)cn5)CC4)C3)cc1)=N[C@@H](C)c1nnc(C)n1-2 (some centres unmarked) [Compound I-571]	< 500 nM	500 to 1500 nM	< 500 nM	< 500 nM				
CCNC(=O)C[C@@H]1N=C(c2ccc(OC3CC(OC4CCN(c5ncc(C(=O)N[C@H]6C(C)(C)[C@H](Oc7ccc(C#N)c(Cl)c7)C6(C)C)cn5)CC4)C3)cc2)c2c(sc(C)c2C)-n2c(C)nnc21 (some centres unmarked) [Compound I-72]	< 500 nM	500 to 1500 nM	< 500 nM	< 500 nM				
Cc1sc2c(c1C)C(c1ccc(-c3nnc(OC4CCN(c5ncc(C(=O)N[C@H]6C(C)(C)[C@H](Oc7ccc(C#N)c(Cl)c7)C6(C)C)cn5)CC4)s3)cc1)=N[C@@H](Cc1ncco1)c1nnc(C)n1-2 [Compound I-407]	< 500 nM	< 500 nM	< 500 nM	< 500 nM				
Cc1sc2c(c1C)C(c1ccc([C@H]3C[C@H](C[C@@H]4CCCN(c5ncc(C(=O)N[C@H]6C(C)(C)[C@H](Oc7ccc(C#N)c(Cl)c7)C6(C)C)cn5)C4)C3)cc1)=N[C@@H](Cc1ncco1)c1nnc(C)n1-2 [Compound I-402]	< 500 nM	> 3000 nM		< 500 nM	500 to 1500 nM			
Cc1sc2c(c1C)C(c1ccc(C3CC(C4CCN(c5ncc(C(=O)N[C@H]6C(C)(C)[C@H](Oc7ccc(C#N)c(Cl)c7)C6(C)C)cn5)CC4)C3)cc1)=NC(C)c1nnc(C)n1-2 (some centres unmarked) [Compound I-467]					< 500 nM	< 500 nM	> 3000 nM	< 500 nM
Cc1sc2c(c1C)C(c1ccc([C@H]3CCCCN3C(=O)[C@H]3CCCN(c4ncc(C(=O)N[C@H]5C(C)(C)[C@@H](Oc6ccc(C#N)c(Cl)c6)C5(C)C)cn4)C3)cc1)=N[C@@H](Cc1ncco1)c1nnc(C)n1-2 [Compound I-359]	> 3000 nM	> 3000 nM	< 500 nM	< 500 nM				
Cc1sc2c(c1C)C(c1ccc([C@H]3C[C@H]([C@@H]4CCCN(c5ncc(C(=O)N[C@H]6C(C)(C)[C@H](Oc7ccc(C#N)c(Cl)c7)C6(C)C)cn5)C4)C3)cc1)=N[C@@H](Cc1ncco1)c1nnc(C)n1-2 [Compound I-423]					< 500 nM	500 to 1500 nM	> 3000 nM	< 500 nM
Cc1sc2c(c1C)C(c1ccc(Cl)cc1)=N[C@@H](CC(=O)NCCCOC1CCN(c3ncc(C(=O)N[C@H]4C(C)(C)[C@H](Oc5ccc(C#N)c(Cl)c5)C4(C)C)cn3)CC1)c1nnc(C)n1-2 [Compound I-20]	500 to 1500 nM	500 to 1500 nM	500 to 1500 nM	< 500 nM				
Cc1sc2c(c1C)C(c1ccc(N3CCC(C4CCN(c5cnc(C(=O)N[C@H]6C(C)(C)[C@H](Oc7ccc(C#N)c(Cl)c7)C6(C)C)cn5)CC4)CC3)cc1)=N[C@@H](C)c1nnc(C)n1-2 [Compound I-437]	< 500 nM	> 3000 nM	> 3000 nM	< 500 nM				
